In ChEMBL document CHEMBL5143608, “Peptide-based long-acting co-agonists of GLP-1 and cholecystokinin 1 receptors as novel anti-diabesity agents” (Eur J Med Chem, 2022):
Activity calls are given as the source filed them. No cut-off for these calls is given here.

Key:
[1] = AUC (0 to infinity) in Sprague-Dawley rat at 25 nmol/kg, iv by LC-MS/MS analysis; type: ADME, organism-based; design: time infinity, dose 25 nmol/kg, route iv; settings: in vivo
Mus musculus [2] = experiment: Anti-diabesity activity against db/db mouse assessed as increase in islet number at 25 nmol/kg, sc administered every 2 days for 3 weeks by H and E staining based analysis; type: functional, organism-based; settings: time 21.0 day
[3] = Renal toxicity in DIO C57BL/6 mouse assessed as blood urea nitrogen level at 25 nmol/kg, sc administered every 2 days for 3 weeks; type: organism-based; settings: in vivo, 504 h, time 21 day
Mus musculus [4] = experiment: Anorectic activity in ICR mouse assessed as decrease in food intake at 25 nmol/kg, ip and measured after 9 hrs; type: functional, organism-based
Mus musculus [5] = experiment: Anti-diabesity activity against db/db mouse assessed as increase in insulin sensitivity by measuring reduction in plasma insulin level at 25 nmol/kg, sc administered every 2 days for 12 weeks by ELISA; type: functional, organism-based
Mus musculus [6] = experiment: Anti-diabesity activity against DIO C57BL/6 mouse assessed as increase in insulin sensitivity by measuring reduction in circulating insulin levels at 25 nmol/kg, sc administered every 2 days for 3 weeks by ELISA; type: functional, organism-based; settings: time 21.0 day
Mus musculus [7] = experiment: Hypoglycemic activity in db/db mouse assessed as reduction in glucose excursion at 25 nmol/kg, ip administered 30 min before oral glucose administration and measured upto 120 mins by OGTT; type: functional, organism-based
[8] = Pancreatic insult activity in DIO C57BL/6 mouse assessed as lipase level in serum at 25 nmol/kg, sc administered every 2 days for 3 weeks; type: toxicity, organism-based; settings: in vivo, 504 h, time 21 day
Mus musculus [9] = experiment: Anti-diabesity activity against db/db mouse assessed as reduction in fasted blood glucose level at 25 nmol/kg, sc administered every 2 days for 3 weeks; type: functional, organism-based; settings: time 21.0 day
Mus musculus [10] = experiment: Anti-diabesity activity against DIO C57BL/6 mouse assessed as reduction in leptin level in plasma at 25 nmol/kg, sc administered every 2 days for 3 weeks by ELISA; type: functional, organism-based; settings: time 21.0 day
BRIN-BD11 = experiment: Insulinotropic activity in rat BRIN-BD11 cells assessed as increase in insulin secretion incubated for 20 mins by radioimmunoassay; type: functional, cell-based; settings: DDE = dose-dependent effect
Mus musculus [11] = experiment: Anti-diabesity activity against db/db mouse assessed as reduction in cumulative food intake at 25 nmol/kg, sc administered every 2 days for 3 weeks; type: functional, organism-based; settings: time 21.0 day
Mus musculus [12] = experiment: Anti-diabesity activity against DIO C57BL/6 mouse assessed as improvement in glucose tolerance at 25 nmol/kg, sc administered every 2 days for 3 weeks by OGTT; type: functional, organism-based; settings: time 21.0 day
Mus musculus [13] = experiment: Anti-diabesity activity against db/db mouse assessed as reduction in fasting blood glucose level at 25 nmol/kg, sc administered every 2 days for 6 weeks followed by saline treatment for 6 weeks and measured during second 6 weeks; type: functional, organism-based
[14] = Toxicity in Sprague-Dawley rat assessed as induction of Pica behaviour by measuring kaolin intake at 25 nmol/kg, ip measured after 24 hrs; type: organism-based; settings: in vivo
[15] = Pancreatic insult activity in DIO C57BL/6 mouse assessed as amylase level in serum at 25 nmol/kg, sc administered every 2 days for 3 weeks; type: toxicity, organism-based; settings: in vivo, 504 h, time 21 day
Mus musculus [16] = experiment: Anti-diabesity activity against DIO C57BL/6 mouse assessed as decrease in fat mass at 25 nmol/kg, sc administered every 2 days for 3 weeks; type: functional, organism-based; settings: time 21.0 day
Mus musculus [17] = experiment: Anti-diabesity activity in DIO C57BL/6 mouse assessed as reduction in body weight at 100 nmol/kg, sc administered once daily for 7 days; type: functional; settings: C57BL/6, 168 h, time 7 day
[18] = Renal toxicity in DIO C57BL/6 mouse assessed as blood urea nitrogen level at 100 nmol/kg, sc administered once daily for 7 days; type: organism-based; settings: in vivo, 168 h, time 7 day
[19] = Hepatotoxicity in db/db mouse assessed as alanine aminotransferase level in plasma at 25 nmol/kg, sc administered every 2 days for 12 weeks; type: toxicity, organism-based; settings: in vivo, 2016 h
[20] = Hepatotoxicity in db/db mouse assessed as alanine aminotransferase level in plasma at 100 nmol/kg, sc administered once daily for 7 days; type: toxicity, organism-based; settings: in vivo, 168 h, time 7 day
Mus musculus [21] = experiment: Anti-diabesity activity against db/db mouse assessed as enhanced islets insulin content at 25 nmol/kg, sc administered every 2 days for 3 weeks by immunohistochemistry staining; type: functional, organism-based; settings: time 21.0 day
Mus musculus [22] = experiment: Anti-diabesity activity against db/db mouse assessed as reduction in HbA1c level at 25 nmol/kg, sc administered every 2 days and measured on day 43; type: functional, organism-based; settings: time 43.0 day
[23] = Hepatotoxicity in db/db mouse assessed as aspartate aminotransferase level in plasma at 25 nmol/kg, sc administered every 2 days for 12 weeks; type: toxicity, organism-based; settings: in vivo, 2016 h
Mus musculus [24] = experiment: Anti-diabesity activity in DIO C57BL/6 mouse assessed as reduction in cumulative food intake at 100 nmol/kg, sc administered once daily for 7 days; type: functional, organism-based; settings: time 7.0 day
[25] = Hepatotoxicity in db/db mouse assessed as aspartate aminotransferase level in plasma at 100 nmol/kg, sc administered once daily for 7 days; type: toxicity, organism-based; settings: in vivo, 168 h, time 7 day
Mus musculus [26] = experiment: Hypoglycemic activity in sc dosed non-fasted db/db mouse assessed as reduction in blood glucose level measured upto 48 hrs; type: functional, organism-based; settings: dose 10-100 nmol/kg, DDE = dose-dependent effect
[27] = Renal toxicity in DIO C57BL/6 mouse assessed as creatinine level in serum at 100 nmol/kg, sc administered once daily for 7 days; type: organism-based; settings: in vivo, 168 h, time 7 day
Mus musculus [28] = experiment: Anti-diabesity activity in db/db mouse assessed as reduction in body weight at 100 nmol/kg, sc administered once daily for 7 days; type: functional, organism-based; settings: time 7.0 day
[29] = Pancreatic insult activity in DIO C57BL/6 mouse assessed as increase in amylase level in plasma at 100 nmol/kg, sc administered once daily for 7 days; type: toxicity, organism-based; settings: in vivo, 168 h, time 7 day
Mus musculus [30] = experiment: Anti-diabesity activity against DIO C57BL/6 mouse assessed as reduction in fasted blood glucose level at 25 nmol/kg, sc administered every 2 days for 3 weeks; type: functional, organism-based; settings: time 21.0 day
[31] = Renal toxicity in db/db mouse assessed as creatinine level in serum at 25 nmol/kg, sc administered every 2 days for 12 weeks; type: organism-based; settings: in vivo, 2016 h
Mus musculus [32] = experiment: Anti-diabesity activity in DIO C57BL/6 mouse assessed as improvement in insulin sensitivity at 25 nmol/kg, sc administered every 2 days for 10 days by insulin tolerance test; type: functional, organism-based; settings: time 10.0 day
[33] = Pancreatic insult activity in db/db mouse assessed as increase in amylase level in plasma at 100 nmol/kg, sc administered once daily for 7 days; type: toxicity, organism-based; settings: in vivo, 168 h, time 7 day
[34] = Renal toxicity in db/db mouse assessed as blood urea nitrogen level in serum at 25 nmol/kg, sc administered every 2 days for 12 weeks; type: organism-based; settings: in vivo, 2016 h
[35] = AUC (0 to infinity) in Sprague-Dawley rat at 25 nmol/kg, sc by LC-MS/MS analysis; type: ADME, organism-based; design: time infinity, dose 25 nmol/kg, route sc; settings: in vivo
Mus musculus [36] = experiment: Anti-diabesity activity in db/db mouse assessed as decrease in fasted blood glucose level at 100 nmol/kg, sc administered once daily for 7 days; type: functional, organism-based; settings: time 7.0 day
Mus musculus [37] = experiment: Anti-diabesity activity in DIO C57BL/6 mouse assessed as decrease in fasted blood glucose level at 100 nmol/kg, sc administered once daily for 7 days; type: functional, organism-based; settings: time 7.0 day
[38] = Pancreatic insult activity in db/db mouse assessed as increase in lipase level in plasma at 100 nmol/kg, sc administered once daily for 7 days; type: toxicity, organism-based; settings: in vivo, 168 h, time 7 day

Structure (SMILES)	AUC(0-inf) [1] [ng·h/mL]	Activity (Mus musculus [2])	Activity [3]	Activity (Mus musculus [4])	Activity (Mus musculus [5])	Activity (Mus musculus [6])	Activity (Mus musculus [7])	Activity [8]	Activity (Mus musculus [9])	Activity (Mus musculus [10])	Activity (BRIN-BD11)	Activity (Mus musculus [11])	Activity (Mus musculus [12])	Activity (Mus musculus [13])	Activity [14]	Activity [15]	Activity (Mus musculus [16])	inhibition in vivo at 0.1 µmol/kg (Mus musculus [17]) [%]	Activity [18]	Activity [19]	also measured
CCCC[C@H](NC(=O)[C@H](Cc1ccc(CS(=O)(=O)O)cc1)NC(=O)[C@H](CC(=O)O)NC(=O)COCCOCCNC(=O)COCCOCCNC(=O)[C@H](CCCCN)NC(=O)CNC(=O)[C@H](CCCCN)NC(=O)[C@@H](NC(=O)[C@H](CC(C)C)NC(=O)[C@H](Cc1c[nH]c2ccccc12)NC(=O)[C@H](CCC(=O)O)NC(=O)[C@@H](NC(=O)[C@H](Cc1ccccc1)NC(=O)[C@H](CCC(=O)O)NC(=O)[C@H](CCCCNC(=O)COCCOCCNC(=O)COCCOCCNC(=O)CC[C@H](NC(=O)CCCCCCCCCCCCCCCCC(=O)O)C(=O)O)NC(=O)[C@H](C)NC(=O)[C@H](C)NC(=O)[C@H](CCC(=O)O)NC(=O)[C@H](CCC(=O)O)NC(=O)[C@H](CCC(=O)O)NC(=O)[C@H](CC(C)C)NC(=O)[C@@H](NC(=O)[C@H](CCC(=O)O)NC(=O)[C@@H](NC(=O)[C@@H](NC(=O)[C@H](CC(=O)O)NC(=O)[C@H](CC(N)=O)NC(=O)[C@@H](NC(=O)[C@H](Cc1ccc(O)cc1)NC(=O)[C@@H](NC(=O)CNC(=O)[C@H](CCC(=O)O)NC(=O)C(C)(C)NC(=O)[C@@H](N)Cc1cnc[nH]1)[C@@H](C)O)[C@@H](C)O)C(C)C)[C@@H](C)O)[C@@H](C)O)[C@@H](C)CC)[C@@H](C)CC)C(=O)NCC(=O)N[C@@H](Cc1c[nH]c2ccccc12)C(=O)N[C@@H](CCCC)C(=O)N(C)[C@H](CC(=O)O)C(=O)N(C)[C@@H](Cc1ccccc1)C(N)=O	17600	Active	Non-Toxic	Active	Active	Active	Active	Non-Toxic	Active	Active	Dde	Active	Active	Active	Non-Toxic	Non-Toxic	Active	21.4	Non-Toxic	Non-Toxic	Activity [20]: Non-Toxic; Activity (Mus musculus [21]): Active; Activity (Mus musculus [22]): Active; Activity [23]: Non-Toxic; Activity (Mus musculus [24]): Active; Activity [25]: Non-Toxic; Activity (Mus musculus [26]): Dde; Activity [27]: Non-Toxic; Activity (Mus musculus [28]): Active; Activity [29]: Non-Toxic; Activity (Mus musculus [30]): Active; Activity [31]: Non-Toxic; Activity (Mus musculus [32]): Active; Activity [33]: Non-Toxic; Activity [34]: Non-Toxic; AUC(0-inf) [35]: 15200 ng·h/mL; Activity (Mus musculus [36]): Active; Activity (Mus musculus [37]): Active; Activity [38]: Non-Toxic
CCCC[C@H](NC(=O)[C@H](Cc1ccc(CS(=O)(=O)O)cc1)NC(=O)[C@H](CC(=O)O)NC(=O)COCCOCCNC(=O)COCCOCCNC(=O)[C@H](CCCNC(=N)N)NC(=O)CNC(=O)[C@H](CCCCN)NC(=O)[C@@H](NC(=O)[C@H](CC(C)C)NC(=O)[C@H](Cc1c[nH]c2ccccc12)NC(=O)[C@H](C)NC(=O)[C@@H](NC(=O)[C@H](Cc1ccccc1)NC(=O)[C@H](CCC(=O)O)NC(=O)[C@H](CCCCNC(=O)COCCOCCNC(=O)COCCOCCNC(=O)CC[C@H](NC(=O)CCCCCCCCCCCCCCCCC(=O)O)C(=O)O)NC(=O)[C@H](C)NC(=O)[C@H](C)NC(=O)[C@H](CCC(N)=O)NC(=O)CNC(=O)[C@H](CCC(=O)O)NC(=O)[C@H](CC(C)C)NC(=O)[C@H](Cc1ccc(O)cc1)NC(=O)[C@H](CO)NC(=O)[C@H](CO)NC(=O)[C@@H](NC(=O)[C@H](CC(=O)O)NC(=O)[C@H](CO)NC(=O)[C@@H](NC(=O)[C@H](Cc1ccccc1)NC(=O)[C@@H](NC(=O)CNC(=O)[C@H](CCC(=O)O)NC(=O)[C@H](C)NC(=O)[C@@H](N)Cc1cnc[nH]1)[C@@H](C)O)[C@@H](C)O)C(C)C)[C@@H](C)CC)C(C)C)C(=O)NCC(=O)N[C@@H](Cc1c[nH]c2ccccc12)C(=O)N[C@@H](CCCC)C(=O)N(C)[C@H](CC(=O)O)C(=O)N(C)[C@@H](Cc1ccccc1)C(N)=O	6050	Active	Non-Toxic	Active	Active	Active	Active	Non-Toxic	Active	Active	Dde	Active	Active	Active	Non-Toxic	Non-Toxic	Active	19.2	Non-Toxic	Non-Toxic	Activity [20]: Non-Toxic; Activity (Mus musculus [21]): Active; Activity (Mus musculus [22]): Active; Activity [23]: Non-Toxic; Activity (Mus musculus [24]): Active; Activity [25]: Non-Toxic; Activity (Mus musculus [26]): Dde; Activity [27]: Non-Toxic; Activity (Mus musculus [28]): Active; Activity [29]: Non-Toxic; Activity (Mus musculus [30]): Active; Activity [31]: Non-Toxic; Activity (Mus musculus [32]): Active; Activity [33]: Non-Toxic; Activity [34]: Non-Toxic; AUC(0-inf) [35]: 5510 ng·h/mL; Activity (Mus musculus [36]): Active; Activity (Mus musculus [37]): Active; Activity [38]: Non-Toxic
